The structures appear in SMILES notation.

The subject of the first assay is vancomycin monoclonal antibody. Briefly: Cross-reaction rate measurement of the test strip of Embodiment 1 (interference testing in human serum containing 20 μg/mL vancomycin). To be noted: test concentration 20 μg/mL; human serum sample. It is filed as binding, Balb/c mouse. As to the method:
20 ul of sample is accurately pipetted into 180 ul of sample diluent and mixed fully.
80 uL of sample solution to be tested is accurately pipetted into a test strip loading well with a micropipette, and reaction is carried out at 20° C. for 15 min. The test strip is inserted into a load carrier of a fluorescence detector, an item to be tested is selected by touching a display screen, a “Detection Start” button is pressed, the fluorescence detector automatically scans the test strip, and a test result is read through the display screen of an instrument or printed.
After the test is completed, the instrument obtains the ratio of the time-resolved fluorescent intensity of the detection area on the test strip to the time-resolved fluorescent intensity of the quality control area, and calculates the content of vancomycin in the sample to be tested according to the following formula. Y=(A−D)/[1+(x/C)^B]+D
Several vancomycin analogs and common drugs are selected for interference testing.
`CN[C@H](CC(C)C)C(=O)N[C@H]1C(=O)N[C@@H](CC(N)=O)C(=O)N[C@H]2C(=O)N[C@H]3C(=O)N[C@H](C(=O)N[C@H](C(=O)O)c4cc(O)cc(O)c4-c4cc3ccc4O)[C@H](O)c3ccc(c(Cl)c3)Oc3cc2cc(c3O[C@@H]2OC(CO)[C@@H](O)[C@H](O)[C@H]2O[C@H]2C[C@](C)(N)[C@H](O)[C@H](C)O2)Oc2ccc(cc2Cl)[C@H]1O.Cl` (stereo partly drawn) [Vancomycin]: the Cross reaction rate came to 100%.

Staying with this assay, now noted: test concentration 100 μg/mL; added to human serum with vancomycin 20 μg/mL.
Consider `CC(C)C[C@@H](N)C(=O)N[C@H]1C(=O)N[C@@H](CC(N)=O)C(=O)N[C@H]2C(=O)N[C@H]3C(=O)N[C@H](C(=O)N[C@H](C(=O)O)c4cc(O)cc(O)c4-c4cc3ccc4O)[C@H](O)c3ccc(c(Cl)c3)Oc3cc2cc(c3O[C@@H]2O[C@H](CO)[C@@H](O)[C@H](O)[C@H]2O[C@H]2C[C@](C)(N)[C@H](O)[C@H](C)O2)Oc2ccc(cc2Cl)[C@H]1O` [Norvancomycin], for which the Cross reaction rate is less than 1%.

The same assay, now with this note: test concentration 1,000 μg/mL; added to human serum with vancomycin 20 μg/mL.
As for `O=C(O)c1ccccc1O` [Salicylic acid], the Cross reaction rate was less than 0.001%.
The same measure, in the same setting: the same measure for `O=C1NC(=O)C(c2ccccc2)(c2ccccc2)N1` [Phenytoin]: less than 0.001%; for `C[C@H]1O[C@@H](O[C@H]2[C@@H](O)C[C@H](O[C@H]3[C@@H](O)C[C@H](O[C@H]4CC[C@@]5(C)[C@H](CC[C@@H]6[C@@H]5C[C@@H](O)[C@]5(C)[C@@H](C7=CC(=O)OC7)CC[C@]65O)C4)O[C@@H]3C)O[C@@H]2C)C[C@H](O)[C@@H]1O` [Digoxin]: less than 0.001%.
On the same count and under the same terms, under `CC(=O)Oc1ccccc1C(=O)O` [Aspirin] stands less than 0.001%.
As to `CCCC(CCC)C(=O)O` [Valproic acid], the Cross reaction rate was less than 0.001%.
On the same count and under the same terms, under `Cn1c(=O)c2[nH]cnc2n(C)c1=O` [Theophylline] stands less than 0.001%; under `NC(=O)N1c2ccccc2C=Cc2ccccc21` [Carbamazepine], less than 0.001%.

The record behind these values is patent US11162959B2, “Time-resolved fluorescent immunochromatographic test strip for detecting vancomycin as well as preparation method and application thereof” (BEIJING DIAGREAT BIOTECHNOLOGIES CO., LTD., priority 2019, dated 2021).
